Molecular target: T1, human active recombinant p38 (p38α) (Homo sapiens, UniProt Q16539)
T1 construct: 6His
Assay: p38 Alpha Enzyme Assay (AlphaScreen, biotinylated-ATF2 substrate)
Format: biochemical
Details: means of replicate determinations; pre-incubated for 4 hours at 37° C.; SD of assay between 0.2 and 0.3 log units
Method: The ability of the compounds of formula (I) to inhibit p38 kinase may be determined using the following biological assay:
Enzyme assays were performed in polypropylene 96 well plates. The following solutions were added to each well; 10 μL of compound dilutions in assay buffer (20 mM HEPES pH 7.4, containing 20 mM magnesium acetate, 0.005% (w/v) Tween-20, 10 mM DTT) containing 1% (v/v) DMSO or assay buffer containing 1% (v/v) DMSO alone, 70 μL of assay buffer containing 36 nM substrate (biotinylated-ATF2) and 10 μL of an appropriate dilution of human active recombinant p38-6H is tagged. Depending on batch of p38, an appropriate dilution was typically a 5 nM solution to give a final enzyme concentration of 0.5 nM. At this stage, background control wells also received 50 μL of AlphaScreen quench buffer (10 mM HEPES pH 7.4 containing 100 mM EDTA, 0.2% (w/v) bovine serum albumin). The plate was covered, pre-incubated for 4 hours at 37° C. and the enzyme reaction initiated by addition of 10 μL 1 mM ATP. After incubation for a further 45 minutes at 37° C., the reaction was stopped by addition of 50 μL quench reagent and 50 μL of the quenched reaction mixture transferred to an opaque, white 96-well plate. Detection reagent, 25 μL of 10 mM HEPES pH 7.4 containing 100 mM EDTA, 0.2% (w/v) bovine serum albumin, 0.3 nM anti phosphoATF2 antibody and 25 μg/mL of AlphaScreen protein A acceptor and donor beads' (PerkinElmer Inc.), was added to all wells in a darkened room, the plate sealed and left in the dark for at least 5 hours before AlphaScreen readings were taken using a Perkin Elmer EnVision reader. Total, uninhibited activity was determined from assays performed in each assay plate. The mean control in the absence of p38 activity was subtracted from each well. Data were expressed as percent inhibition of total activity using equation 1. Percent Inhibition=100*(1−Test/Control) Eq.1 Where . . . Test=p38 kinase activity in the presence of compound Control=p38 kinase activity in the absence of compound.
pIC50 is defined as the logarithm of the reciprocal of the concentration of compound required for 50% reduction in total p38 kinase activity.
The standard deviation of the p38 enzyme inhibition assay is between 0.2 and 0.3 log units.

T1 sequence (Q16539 whole entry): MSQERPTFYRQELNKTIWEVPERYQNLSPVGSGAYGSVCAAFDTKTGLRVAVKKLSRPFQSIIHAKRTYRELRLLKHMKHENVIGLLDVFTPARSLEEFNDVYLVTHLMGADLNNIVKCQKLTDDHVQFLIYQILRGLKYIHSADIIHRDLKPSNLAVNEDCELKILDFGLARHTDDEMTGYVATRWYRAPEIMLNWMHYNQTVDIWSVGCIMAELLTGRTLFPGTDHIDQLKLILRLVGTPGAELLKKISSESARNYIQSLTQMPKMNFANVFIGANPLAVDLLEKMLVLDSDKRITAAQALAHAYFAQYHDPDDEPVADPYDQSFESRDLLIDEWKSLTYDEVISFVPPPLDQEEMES

**Q.** With Cc1c(F)cc(C(=O)NC2CC2)cc1-c1ccc2c(=O)n(CC(C)(C)CO)cc(CN3CCN[C@H](CO)C3)c2c1 [Example 17, N-Cyclopropyl-3-fluoro-5-(2-(3-hydroxy-2,2-dimethylpropyl)-4-(((3S)-3-(hydroxymethyl)piperazin-1-yl)methyl)-1-oxo-1,2-dihydroisoquinolin-6-yl)-4-methylbenzamide] as the molecule, how does the “p38α inhibition Mean pIC50” value read?
**A.** Its value is 9.6.

Same assay, conditions: means of replicate determinations; pre-incubated for 4 hours at 37° C.; SD of assay between 0.2 and 0.3 log units; read-out: p38α inhibition Mean pIC50 (converted)

**Q.** Which IC50 does the source give for Cc1c(F)cc(C(=O)NC2CC2)cc1-c1ccc2c(=O)n(CC(C)(C)CO)cc(C(C)N3CCNCC3)c2c1 (racemic) [Example 38, N-Cyclopropyl-3-fluoro-5-[2-(3-hydroxy-2,2-dimethylpropyl)-1-oxo-4-(1-piperazin-1-ylethyl)-1,2-dihydroisoquinolin-6-yl]-4-methylbenzamide racemate] here?
**A.** Its IC50 is 0.2 nM.

**Q.** How did the IC50 turn out when Cc1c(F)cc(C(=O)NC2CC2)cc1-c1ccc2c(=O)n(CC(C)(C)CO)cc(C(C)N3CCNCC3)c2c1 (single isomer, unassigned) [Example 39, N-Cyclopropyl-3-fluoro-5-[2-(3-hydroxy-2,2-dimethylpropyl)-1-oxo-4-(1-piperazin-1-ylethyl)-1,2-dihydroisoquinolin-6-yl]-4-methylbenzamide] was run?
**A.** Its IC50 is 0.631 nM.

**Q.** Which IC50 does the source give for Cc1c(F)cc(C(=O)NC2CC2)cc1-c1ccc2c(=O)n(CC(C)(C)CO)cc(C(C)N3CCNCC3)c2c1 (single isomer, unassigned) [Example 40, N-Cyclopropyl-3-fluoro-5-[2-(3-hydroxy-2,2-dimethylpropyl)-1-oxo-4-(1-piperazin-1-ylethyl)-1,2-dihydroisoquinolin-6-yl]-4-methylbenzamide] here?
**A.** Its IC50 is 0.0794 nM.

**Q.** Cc1c(F)cc(C(=O)NC2CC2)cc1-c1ccc2c(=O)n(CC(C)(C)CO)cc(CN3CCNCC3)c2c1 [Example 1, N-Cyclopropyl-3-fluoro-5-[2-(3-hydroxy-2,2-dimethylpropyl)-1-oxo-4-(piperazin-1-ylmethyl)-1,2-dihydroisoquinolin-6-yl]-4-methylbenzamide] was tested. Which IC50 did it give?
**A.** Its IC50 is 0.126 nM.

**Q.** For Cc1c(F)cc(C(=O)NC2CC2)cc1-c1ccc2c(=O)n(CC(C)(C)CO)cc(CN3CCCN(C)CC3)c2c1 [Example 2, N-Cyclopropyl-3-fluoro-5-{2-(3-hydroxy-2,2-dimethylpropyl)-4-[(4-methyl-1,4-diazepan-1-yl)methyl]-1-oxo-1,2-dihydroisoquinolin-6-yl}-4-methylbenzamide], which IC50 is on record?
**A.** The IC50 was 0.251 nM.

**Q.** How did the IC50 turn out when Cc1c(F)cc(C(=O)NC2CC2)cc1-c1ccc2c(=O)n(CCCO)cc(CN3CCN[C@H](CO)C3)c2c1 [Example 3, N-Cyclopropyl-3-fluoro-5-(4-(((3S)-3-(hydroxymethyl)piperazin-1-yl)methyl)-2-(3-hydroxypropyl)-1-oxo-1,2-dihydroisoquinolin-6-yl)-4-methylbenzamide] was run?
**A.** The IC50 was 0.158 nM.

**Q.** With Cc1c(F)cc(C(=O)NC2CC2)cc1-c1ccc2c(=O)n(CCCO)cc(CN3CCN[C@@H](C)C3)c2c1 [Example 4, N-Cyclopropyl-3-fluoro-5-(2-(3-hydroxypropyl)-4-(((3S)-3-methylpiperazin-1-yl)methyl)-1-oxo-1,2-dihydroisoquinolin-6-yl)-4-methylbenzamide] as the molecule, how does the IC50 read?
**A.** Its IC50 is 0.501 nM.

**Q.** For Cc1c(F)cc(C(=O)NC2CC2)cc1-c1ccc2c(=O)n(CCO)cc(CN3CCNCC3)c2c1 [Example 5, N-Cyclopropyl-3-fluoro-5-(2-(2-hydroxyethyl)-1-oxo-4-(piperazin-1-ylmethyl)-1,2-dihydroisoquinolin-6-yl)-4-methylbenzamide], which IC50 is on record?
**A.** The IC50 was 0.2 nM.

**Q.** Cc1c(F)cc(C(=O)NC2CC2)cc1-c1ccc2c(=O)n(CCO)cc(CN3CCN[C@@H](C)C3)c2c1 [Example 6] was tested. Which IC50 did it give?
**A.** Its IC50 is 1 nM.

**Q.** With Cc1c(F)cc(C(=O)NC2CC2)cc1-c1ccc2c(=O)n(CCO)cc(CN3CCCN(C)CC3)c2c1 [Example 7, N-Cyclopropyl-3-fluoro-5-(2-(2-hydroxyethyl)-4-((4-methyl-1,4-diazepan-1-yl)methyl)-1-oxo-1,2-dihydroisoquinolin-6-yl)-4-methylbenzamide] as the molecule, how does the IC50 read?
**A.** The IC50 was 0.501 nM.

**Q.** For Cc1c(F)cc(C(=O)NC2CC2)cc1-c1ccc2c(=O)n(CCCCO)cc(CN3CCCN(C)CC3)c2c1 [Example 8, N-Cyclopropyl-3-fluoro-5-{2-(4-hydroxybutyl)-4-[(4-methyl-1,4-diazepan-1-yl)methyl]-1-oxo-1,2-dihydroisoquinolin-6-yl}-4-methylbenzamide], which IC50 is on record?
**A.** Its IC50 is 0.251 nM.

**Q.** Which IC50 does the source give for Cc1c(F)cc(C(=O)NC2CC2)cc1-c1ccc2c(=O)n(CC[C@H](C)O)cc(CN3CCNCC3)c2c1 [Example 9, N-Cyclopropyl-3-fluoro-5-{2-[(3S)-3-hydroxybutyl]-1-oxo-4-(piperazin-1-ylmethyl)-1,2-dihydroisoquinolin-6-yl}-4-methylbenzamide] here?
**A.** Its IC50 is 1.58 nM.

**Q.** Cc1c(F)cc(C(=O)NC2CC2)cc1-c1ccc2c(=O)n(CCCO)cc(CN3CCNCC3)c2c1 [Example 10, N-Cyclopropyl-3-fluoro-5-[2-(3-hydroxypropyl)-1-oxo-4-(piperazin-1-ylmethyl)-1,2-dihydroisoquinolin-6-yl]-4-methylbenzamide] was tested. Which IC50 did it give?
**A.** The IC50 was 0.0794 nM.

**Q.** With Cc1c(F)cc(C(=O)NC2CC2)cc1-c1ccc2c(=O)n(CC(C)(C)CO)cc(CN3CCN[C@@H](CO)C3)c2c1 [Example 11, N-Cyclopropyl-3-fluoro-5-(2-(3-hydroxy-2,2-dimethylpropyl)-4-(((3R)-3-(hydroxymethyl)piperazin-1-yl)methyl)-1-oxo-1,2-dihydroisoquinolin-6-yl)-4-methylbenzamide] as the molecule, how does the IC50 read?
**A.** The IC50 was 0.158 nM.

**Q.** With Cc1c(F)cc(C(=O)NC2CC2)cc1-c1ccc2c(=O)n(CC3(CO)CC3)cc(CN3CCN[C@@H](CO)C3)c2c1 [Example 12, N-Cyclopropyl-3-fluoro-5-(2-((1-(hydroxymethyl)cyclopropyl)methyl)-4-(((3R)-3-(hydroxymethyl)piperazin-1-yl)methyl)-1-oxo-1,2-dihydroisoquinolin-6-yl)-4-methylbenzamide] as the molecule, how does the IC50 read?
**A.** Its IC50 is 0.398 nM.

**Q.** For COCCCn1cc(CN2CCN[C@@H](CO)C2)c2cc(-c3cc(C(=O)NC4CC4)cc(F)c3C)ccc2c1=O [Example 13], which IC50 is on record?
**A.** The IC50 was 0.501 nM.

**Q.** For Cc1c(F)cc(C(=O)NC2CC2)cc1-c1ccc2c(=O)n(CCC(C)(C)O)cc(CN3CCN[C@@H](CO)C3)c2c1 [Example 14, N-Cyclopropyl-3-fluoro-5-(2-(3-hydroxy-3-methylbutyl)-4-(((3R)-3-(hydroxymethyl)piperazin-1-yl)methyl)-1-oxo-1,2-dihydroisoquinolin-6-yl)-4-methylbenzamide], which IC50 is on record?
**A.** Its IC50 is 0.501 nM.

**Q.** For Cc1c(F)cc(C(=O)NC2CC2)cc1-c1ccc2c(=O)n(CC3(CO)CC3)cc(CN3CCN[C@H](CO)C3)c2c1 [Example 15, N-Cyclopropyl-3-fluoro-5-(2-((1-(hydroxymethyl)cyclopropyl)methyl)-4-(((3S)-3-(hydroxymethyl)piperazin-1-yl)methyl)-1-oxo-1,2-dihydroisoquinolin-6-yl)-4-methylbenzamide], which IC50 is on record?
**A.** Its IC50 is 0.501 nM.

**Q.** Which IC50 does the source give for Cc1c(F)cc(C(=O)NC2CC2)cc1-c1ccc2c(=O)n(CC3(CO)CC3)cc(CN3CCNC[C@@H]3CO)c2c1 [Example 16, N-Cyclopropyl-3-fluoro-5-(2-((1-(hydroxymethyl)cyclopropyl)methyl)-4-(((2R)-2-(hydroxymethyl)piperazin-1-yl)methyl)-1-oxo-1,2-dihydroisoquinolin-6-yl)-4-methylbenzamide] here?
**A.** Its IC50 is 0.251 nM.

**Q.** For Cc1c(F)cc(C(=O)NC2CC2)cc1-c1ccc2c(=O)n(C[C@H](C)CO)cc(CN3CCNCC3)c2c1 [Example 18, N-Cyclopropyl-3-fluoro-5-{2-[(2S)-3-hydroxy-2-methylpropyl]-1-oxo-4-(piperazin-1-ylmethyl)-1,2-dihydroisoquinolin-6-yl}-4-methylbenzamide], which IC50 is on record?
**A.** The IC50 was 0.794 nM.

**Q.** With Cc1c(F)cc(C(=O)NC2CC2)cc1-c1ccc2c(=O)n(CC3(CO)CC3)cc(CN3CCNCC3)c2c1 [Example 19, N-Cyclopropyl-3-fluoro-5-[2-{[1-(hydroxymethyl)cyclopropyl]methyl}-1-oxo-4-(piperazin-1-ylmethyl)-1,2-dihydroisoquinolin-6-yl]-4-methylbenzamide] as the molecule, how does the IC50 read?
**A.** Its IC50 is 0.398 nM.

**Q.** With Cc1c(F)cc(C(=O)NC2CC2)cc1-c1ccc2c(=O)n(C[C@@H](C)CO)cc(CN3CCNCC3)c2c1 [Example 20, N-Cyclopropyl-3-fluoro-5-{2-[(2R)-3-hydroxy-2-methylpropyl]-1-oxo-4-(piperazin-1-ylmethyl)-1,2-dihydroisoquinolin-6-yl}-4-methylbenzamide] as the molecule, how does the IC50 read?
**A.** The IC50 was 0.794 nM.

**Q.** With Cc1c(F)cc(C(=O)NC2CC2)cc1-c1ccc2c(=O)n(CC(C)(C)CO)cc(CN3CCNC[C@H]3CO)c2c1 [Example 21, N-Cyclopropyl-3-fluoro-5-[2-(3-hydroxy-2,2-dimethylpropyl)-4-{[(2S)-2-(hydroxymethyl)piperazin-1-yl]methyl}-1-oxo-1,2-dihydroisoquinolin-6-yl]-4-methylbenzamide] as the molecule, how does the IC50 read?
**A.** The IC50 was 0.251 nM.

Source: patent US8012980B2, “Isoquinolinone derivatives” (AstraZeneca AB, priority 2008, dated 2011)
